Reference: patent US11192867B2, “Microbiocidal oxadiazole derivatives” (SYNGENTA PARTICIPATIONS AG, priority 2016, dated 2021)

What was measured:
[1] = test system: Glomerella lagenarium (Colletotrichum lagenarium); assay: Fungicidal activity against Glomerella lagenarium (Colletotrichum lagenarium) liquid culture / cucumber / preventative (anthracnose); type: cell-based; conditions: Colletotrichum orbiculare, 72 h; 20 ppm in the applied formulation; liquid culture (PDB), growth inhibition measured photometrically 3 to 4 days after application; vs untreated control; read-out: disease control
How it was run: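 Conidia from cryogenic storage were mixed into potato dextrose broth and added to DMSO solutions of test compound in microtiter plates. Plates were incubated at 24° C. and growth inhibition read photometrically 3 to 4 days after application, as percent antifungal activity versus untreated check.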

Phakopsora pachyrhizi = assay: Fungicidal activity against Phakopsora pachyrhizi / soybean / leaf disc preventative (Asian soybean rust); type: in vivo; conditions: foliar, 200 ppm in the applied formulation, soybean leaf disks, vs untreated control, read-out: disease control
How it was run: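 Soybean leaf discs on water agar sprayed with compound diluted in water, then inoculated with spores on the lower surface one day later. Kept 24-36 h dark, 20 °C, 75% rh, then 12 h light/12 h dark. Percent disease control versus untreated scored 12-14 days after application.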

[2] = test system: Puccinia recondita f. sp. Tritici; assay: Fungicidal activity against Puccinia recondita f. sp. Tritici / wheat / leaf disc curative (brown rust); type: in vivo; conditions: foliar, 24 h, 200 ppm in the applied formulation, wheat leaf segments cv. Kanzler, applied 1 day after inoculation, vs untreated control, read-out: disease control
Procedure: Leaf disks or leaf segments of various plant species are cut from plants grown in a greenhouse. The cut leaf disks or segments are placed in multiwell plates (24-well format) onto water agar. The leaf disks are sprayed with a test solution before (preventative) or after (curative) inoculation. Compounds to be tested are prepared as DMSO solutions (max. 10 mg/ml) which are diluted to the appropriate concentration with 0.025% Tween20 just before spraying. The inoculated leaf disks or segments are incubated under defined conditions (temperature, relative humidity, light, etc.) according to the respective test system. A single evaluation of disease level is carried out 3 to 14 days after inoculation, depending on the pathosystem. Percent disease control relative to the untreated check leaf disks or segments is then calculated.
Wheat leaf segments cv. Kanzler are placed on agar in multiwell plates (24-well format). The leaf segments are then inoculated with a spore suspension of the fungus. Plates were stored in darkness at 19° C. and 75% relative humidity. The formulated test compound diluted in water was applied 1 day after inoculation. The leaf segments were incubated at 19° C. and 75% relative humidity under a light regime of 12 hours light/12 hours darkness in a climate cabinet and the activity of a compound was assessed as percent disease control compared to untreated when an appropriate level of disease damage appears in untreated check leaf segments (6 to 8 days after application).
The following compounds at 200 ppm in the applied formulation give at least 80% disease control in this test when compared to untreated control leaf disks under the same conditions, which show extensive disease development.

[3] = test system: Puccinia recondita f. sp. Tritici; assay: Fungicidal activity against Puccinia recondita f. sp. Tritici / wheat / leaf disc preventative (brown rust); type: in vivo; conditions: foliar, 200 ppm in the applied formulation, wheat leaf segments cv. Kanzler, inoculated 1 day after application, vs untreated control, read-out: disease control
How it was run: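 Wheat cv. Kanzler leaf segments on agar sprayed with diluted compound, inoculated with brown rust spores 1 day later. Kept at 19° C., 75% rh, 12 h light/dark; percent disease control versus untreated segments scored 7 to 9 days after application, compounds tested at 200 ppm.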

CON=CC(C)(C)NC(=O)c1ccc(-c2noc(C(F)(F)F)n2)cc1F [Compound 1.2, 2-fluoro-N-(2-methoxyimino-1,1-dimethyl-ethyl)-4-[5-(trifluoromethyl)-1,2,4-oxadiazol-3-yl]benzamide]
≥ 80%: inhibition of growth at 20 ppm [1] | pest or weed control at 200 ppm (Phakopsora pachyrhizi) | pest or weed control at 200 ppm [2]

COc1cccc(CON=CC(C)NC(=O)c2ccc(-c3noc(C(F)(F)F)n3)cc2)c1 (stereo not drawn) [Compound 1.17, N-[2-[(3-methoxyphenyl)methoxyimino]-1-methyl-ethyl]-4-[5-(trifluoromethyl)-1,2,4-oxadiazol-3-yl]benzamide]
≥ 80%: inhibition of growth at 20 ppm [1] | pest or weed control at 200 ppm (Phakopsora pachyrhizi) | pest or weed control at 200 ppm [2]

CC(C=NOCC(=O)O)NC(=O)c1ccc(-c2noc(C(F)(F)F)n2)cc1 (stereo not drawn) [Compound 1.20, 2-[2-[[4-[5-(trifluoromethyl)-1,2,4-oxadiazol-3-yl]benzoyl]amino]propylidene-amino] oxyacetic acid]
≥ 80%: inhibition of growth at 20 ppm [1] | pest or weed control at 200 ppm [2] | pest or weed control at 200 ppm [3]

CC(C=NO[C@H](C)C(=O)O)NC(=O)c1ccc(-c2noc(C(F)(F)F)n2)cc1 (stereo partly drawn) [Compound 1.29, (2R)-2-[2-[[4-[5-(trifluoromethyl)-1,2,4-oxadiazol-3-yl]benzoyl]amino]propylideneamino] oxypropanoic acid]
≥ 80%: inhibition of growth at 20 ppm [1] | pest or weed control at 200 ppm [2] | pest or weed control at 200 ppm [3]

CC(C=NO[C@@H](C)C(=O)O)NC(=O)c1ccc(-c2noc(C(F)(F)F)n2)cc1 (stereo partly drawn) [Compound 1.32, (2S)-2-[2-[[4-[5-(trifluoromethyl)-1,2,4-oxadiazol-3-yl]benzoyl]amino]propylideneamino] oxypropanoic acid]
≥ 80%: inhibition of growth at 20 ppm [1] | pest or weed control at 200 ppm [2] | pest or weed control at 200 ppm [3]

CC(C=NOC(C)C(=O)O)NC(=O)c1ccc(-c2noc(C(F)(F)F)n2)cc1 (stereo not drawn) [Compound 1.37, 2-[2-[[4-[5-(trifluoromethyl)-1,2,4-oxadiazol-3-yl]benzoyl]amino]propylideneamino] oxypropanoic acid]
≥ 80%: inhibition of growth at 20 ppm [1] | pest or weed control at 200 ppm [2] | pest or weed control at 200 ppm [3]

C[C@H](ON=CCNC(=O)c1ccc(-c2noc(C(F)(F)F)n2)cc1)C(=O)O [Compound 1.77, (2S)-2-[2-[[4-[5-(trifluoromethyl)-1,2,4-oxadiazol-3-yl]benzoyl]amino]ethylideneamino] oxypropanoic acid]
≥ 80%: inhibition of growth at 20 ppm [1] | pest or weed control at 200 ppm [2] | pest or weed control at 200 ppm [3]

CC(CNC(=O)c1ccc(-c2noc(C(F)(F)F)n2)cc1)=NO[C@H](C)C(=O)O [Compound 1.117, (2R)-2-[[1-methyl-2-[[4-[5-(trifluoromethyl)-1,2,4-oxadiazol-3-yl]benzoyl]amino]ethylidene]amino] oxypropanoic acid]
≥ 80%: inhibition of growth at 20 ppm [1] | pest or weed control at 200 ppm [2] | pest or weed control at 200 ppm [3]

CC(CNC(=O)c1ccc(-c2noc(C(F)(F)F)n2)cc1)=NO[C@@H](C)C(=O)O [Compound 1.120, (2S)-2-[[1-methyl-2-[[4-[5-(trifluoromethyl)-1,2,4-oxadiazol-3-yl]benzoyl]amino]ethylidene]amino] oxypropanoic acid]
≥ 80%: inhibition of growth at 20 ppm [1] | pest or weed control at 200 ppm [2] | pest or weed control at 200 ppm [3]
